# Patent US10016383B2, “Inhibitors of metallo-β-lactamase-enzymes” (McMaster University, priority 2013, dated 2018)
# Experiments:
# NDM-1 [1] = biological target: T1, NDM-1 (Klebsiella pneumoniae, UniProt C7C422); test: Reversibility assay (PD-10 column removal of AM-A); type: biochemical; design: All β-lactamase overexpression constructs were generated without the leader peptide in a pET-28b plasmid containing a N-terminal His Tag; His tag (N, cleaved yes); SUMO (implied by the use of SUMO protease) (N, cleaved yes); made in house; host or cells: E. coli BL21(DE3); conditions: after removal of AM-A by gel filtration (PD10 column)
# Description: 5 mL NDM-1 (500 nM) was incubated either with AM-A (100 μM), or without, on ice for 1 hour. The no enzyme control was buffer alone (Chelex-treated 50 mM HEPES pH 7.5). 2.5 mL was passed through a PD-10 spin column (GE healthcare) following column equilibration with buffer and centrifuged at 2,000×g for 2 minutes. Pre-PD-10 (+AM-A, −AM-A, −NDM-1), Post-PD-10 ((+AM-A, −AM-A, −NDM-1), and nitrocefin were equilibrated to 30° C. 20 μL of the enzyme solution was added to 180 μL nitrocefin for final enzyme concentration of 50 nM, and nitrocefin of 100 μM and AM-A of 10 μM. Assays were read in 96-well microplate format at 490 nm using a Spectramax reader (Molecular Devices) for 1 hr at 30° C.
# ACE = biological target: T2, ACE (Oryctolagus cuniculus, UniProt P12822); test: Incubation of AM-A with metalloenzymes in Zn2+-depleted buffer; type: biochemical, rabbit; conditions: extended incubation, AM-A 0.5 mM
# T2 construct: as well as ACE from rabbit lung; from tissue; host or cells: rabbit lung
# T2 sequence (P12822 34-1310): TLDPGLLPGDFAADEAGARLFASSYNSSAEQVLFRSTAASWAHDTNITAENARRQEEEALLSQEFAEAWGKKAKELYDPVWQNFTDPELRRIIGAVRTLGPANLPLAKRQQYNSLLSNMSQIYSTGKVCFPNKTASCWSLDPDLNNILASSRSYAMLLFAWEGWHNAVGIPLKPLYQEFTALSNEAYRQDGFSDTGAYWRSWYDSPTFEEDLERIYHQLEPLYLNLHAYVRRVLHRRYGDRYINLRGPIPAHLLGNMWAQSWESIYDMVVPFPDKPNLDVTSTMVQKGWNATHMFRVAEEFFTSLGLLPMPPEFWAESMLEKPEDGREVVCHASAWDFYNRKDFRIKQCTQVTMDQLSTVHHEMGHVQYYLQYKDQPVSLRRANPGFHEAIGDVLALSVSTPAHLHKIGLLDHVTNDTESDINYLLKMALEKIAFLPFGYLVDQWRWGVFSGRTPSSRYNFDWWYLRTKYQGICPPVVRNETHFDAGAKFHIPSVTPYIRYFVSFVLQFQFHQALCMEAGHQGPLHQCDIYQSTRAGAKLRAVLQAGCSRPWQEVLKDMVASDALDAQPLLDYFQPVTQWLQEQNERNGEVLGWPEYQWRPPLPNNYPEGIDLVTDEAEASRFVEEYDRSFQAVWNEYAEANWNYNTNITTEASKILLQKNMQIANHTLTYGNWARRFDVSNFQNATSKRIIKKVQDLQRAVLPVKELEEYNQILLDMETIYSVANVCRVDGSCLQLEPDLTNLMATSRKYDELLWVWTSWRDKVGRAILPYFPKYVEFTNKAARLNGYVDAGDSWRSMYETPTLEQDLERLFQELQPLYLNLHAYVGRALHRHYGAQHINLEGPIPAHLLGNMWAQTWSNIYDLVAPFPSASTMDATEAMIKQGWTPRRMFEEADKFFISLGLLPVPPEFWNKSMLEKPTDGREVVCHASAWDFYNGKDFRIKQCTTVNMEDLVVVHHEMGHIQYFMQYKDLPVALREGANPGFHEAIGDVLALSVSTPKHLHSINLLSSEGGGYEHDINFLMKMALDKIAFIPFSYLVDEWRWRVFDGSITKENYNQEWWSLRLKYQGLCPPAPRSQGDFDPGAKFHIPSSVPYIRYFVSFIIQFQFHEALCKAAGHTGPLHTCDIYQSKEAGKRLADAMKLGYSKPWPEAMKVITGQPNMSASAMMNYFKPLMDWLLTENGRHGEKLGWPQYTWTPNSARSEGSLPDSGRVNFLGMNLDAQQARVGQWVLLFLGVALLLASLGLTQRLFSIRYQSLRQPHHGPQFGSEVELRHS
# Description: (§1) Enzyme (500 nM) was incubated with AM-A (500 μM) for 10 minutes. 20 μL of the above was diluted with 180 μL nitrocefin or FAPGG substrate for the following final concentrations: Enzyme (50 nM), FAPGG (50 μM)/nitrocefin (20 μM), AM-A (50 μM). Buffer (50 mM HEPES pH 7.5, 300 mM NaCl) was stirred overnight with 2 g/100 mL Chelex-100 (Biorad; Richmond, Calif.). Assays were read in 96-well microplate format at 490 nm using a Spectramax reader (Molecular Devices) at 37° C.
# NDM-1 [2] = biological target: T1, NDM-1; test: as above; type: biochemical; design: All β-lactamase overexpression constructs were generated without the leader peptide in a pET-28b plasmid containing a N-terminal His Tag; His tag (N, cleaved yes); SUMO (implied by the use of SUMO protease) (N, cleaved yes); made in house; host or cells: E. coli BL21(DE3); conditions: extended incubation, AM-A 0.5 mM
# Description: as §1
# T1 sequence (C7C422 29-270 limits assumed): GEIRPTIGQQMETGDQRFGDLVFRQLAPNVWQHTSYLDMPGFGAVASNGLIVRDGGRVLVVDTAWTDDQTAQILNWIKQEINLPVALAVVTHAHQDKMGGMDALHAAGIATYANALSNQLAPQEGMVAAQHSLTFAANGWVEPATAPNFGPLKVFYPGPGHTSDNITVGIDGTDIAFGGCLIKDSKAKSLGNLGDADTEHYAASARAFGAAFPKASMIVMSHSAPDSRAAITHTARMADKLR
smiles,measurement,setting,value
"N[C@H](CN[C@H](CN[C@@H](CC(=O)O)C(=O)O)C(=O)O)C(=O)O [AM-A, aspergillomarasmine A]",reversibility of NDM-1 inhibition,NDM-1 [1],irreversible inactivation
same,inhibition at 500 µM,ACE,~50%
same,inactivation of NDM-1,NDM-1 [2],complete inactivation
